From US20080085889A1, “Amidomethyl-Substituted 1-(Carboxyalkyl) Cyclopentyl-Carbonylamino-Benzazepine-N-Acetic Acid Compounds, Process and Intermediate Products for Their Preparation and Pharmaceutical Compositions Containing Them” (SOLVAY PHARMACEUTICALS GmbH, priority 2003, published 2008)

How the values were obtained:
[1] = molecular target: T1, His6-tagged hSEP ectodomain (Homo sapiens, UniProt Q495T6); experiment: In vitro investigation of the hSEP-inhibitory action (fluorescence-quenched Big-ET-1 analogue, HPLC); assay type: biochemical
T1 construct: His6-tagged hSEP ectodomain; His6; purchased Innogenetics, Ghent, Belgium
T1 sequence (Q495T6 49-779 limits assumed): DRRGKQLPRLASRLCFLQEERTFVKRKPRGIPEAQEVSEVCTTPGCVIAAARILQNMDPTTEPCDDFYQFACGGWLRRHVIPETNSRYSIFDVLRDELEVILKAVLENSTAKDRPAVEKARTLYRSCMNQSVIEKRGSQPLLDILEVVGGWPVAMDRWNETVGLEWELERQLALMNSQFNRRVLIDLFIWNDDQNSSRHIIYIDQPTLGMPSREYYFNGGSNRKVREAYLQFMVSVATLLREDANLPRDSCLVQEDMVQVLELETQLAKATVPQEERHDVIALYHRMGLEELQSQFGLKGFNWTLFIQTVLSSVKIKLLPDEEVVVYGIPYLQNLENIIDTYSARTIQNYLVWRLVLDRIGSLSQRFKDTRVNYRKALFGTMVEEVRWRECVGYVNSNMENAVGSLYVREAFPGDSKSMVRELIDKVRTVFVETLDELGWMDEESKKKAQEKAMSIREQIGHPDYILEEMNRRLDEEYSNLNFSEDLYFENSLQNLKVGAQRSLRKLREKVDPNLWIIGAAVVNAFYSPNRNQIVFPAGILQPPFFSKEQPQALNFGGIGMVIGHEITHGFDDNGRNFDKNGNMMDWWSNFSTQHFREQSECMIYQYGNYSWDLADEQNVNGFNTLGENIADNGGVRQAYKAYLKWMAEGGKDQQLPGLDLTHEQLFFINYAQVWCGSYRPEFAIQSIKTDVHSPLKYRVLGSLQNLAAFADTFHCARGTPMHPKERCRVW
Experimental: 2. In Vitro Investigation of the hSEP-Inhibitory Action of the Substances
In this test, the measure of the inhibitory activity of the substances which was determined was their IC50 value. The IC50 value of a test substance having enzyme-inhibitory activity is that concentration of the test substance at which 50% of the enzymatic activity of the hSEP is blocked.
The test and the HPLC procedure were carried out analogously to the manner set forth above for determining the in vitro inhibitory action of the test substances on NEP. 10 nM phosphoramidon served as standard inhibitor in the HPLC procedure. In this test model the test substances of Formula I listed in the following Table 2 had the IC50 values given below: […]

[2] = tested on: formation of ET-1 from Big-ET-1; experiment: In vivo inhibition of the Big-ET-1-induced blood pressure increase in anaesthetised rats, i.v. single dose; set-up: species or system Rats (Sprague-Dawley); conditions: Rattus norvegicus, iv, 10 μmol/kg, 5 min before 0.5 nmol/kg Big-ET-1, negative values indicate inhibition, read-out: % substance-related inhibition of the maximum Big-ET effect on SAP vs. control
From the text: 3. In Vivo Investigation of the Inhibitory Action of the Substances on the Formation of ET-1 from Big-ET-1 in Rats
ET-1 is an endogenous substance with strong vasoconstrictive effect. An increase in the ET-1 level results in an increase in blood pressure. Upon infusion of Big-ET-1, an increase in blood pressure takes place to the extent that ET-1 is produced therefrom by enzyme-catalysed cleavage of Big-ET-1. As a measurement of the enzyme-inhibiting action of the substances, their inhibitory action on the increase in blood pressure induced by infusion of Big-ET-1 was determined.
Rats (Sprague-Dawley, CRLD=Charles River) were anaesthetised with 1 ml/kg Rompun/Ketavet 1:1. A pressure transducer (Statham) was inserted into the carotid artery to measure blood pressure. One jugular vein was cannulated for administering the substance, and the other for administering Big-ET-1. After a 20-minute equilibration phase, the rats were administered the corresponding test substance of Formula I at a dose of as a rule 10 μmol/kg (if not stated otherwise), or a vehicle. Five minutes later, 0.5 nmol/kg Big-ET-1 was infused over a period of one minute. The systolic (SAP=systolic arterial pressure) and the diastolic (DAP=diastolic arterial pressure) blood pressure and the heart rate were each measured before administration of the substance, then immediately before administration of Big-ET and in each case every five minutes over a period of 30 minutes after Big-ET administration using the pressure transducer in known manner. The maximum Big-ET-induced increase in blood pressure and the maximum lowering of heart rate were calculated from the measured values as the difference between the value measured at the moment of maximum development of the Big-ET action (typically after 5 min.) and the value measured before Big-ET infusion. Furthermore, the integral of the blood pressure curve under the influence of Big-ET-1 was determined over 30 minutes (AUC=area under the curve).
The percentage inhibition of the maximum Big-ET-1 effect on the systolic arterial blood pressure (SAP) after i.v. administration of the test substances compared with administration of a vehicle is set forth in the following Table 3a:
Data given in table 3a as negative values indicate an inhibitory effect.

[3] = molecular target: T2, soluble, human recombinant NEP (Homo sapiens, UniProt P08473); experiment: In-vitro investigation of the NEP inhibitory action (fluorescence-quenched Big-ET-1 analogue, HPLC); assay type: biochemical
T2 construct: soluble, human recombinant NEP; purchased Prof; Crine, University of Montreal, Canada
Experimental: 1. In-Vitro Investigation of the NEP Inhibitory Action of the Substances
In this test, the measure of the inhibitory activity of the substances which was determined was their IC50 value. The IC50 value of a test substance having enzyme-inhibitory activity is that concentration of the test substance at which 50% of the enzymatic activity of the NEP is blocked.
70 μl test buffer, 10 μl enzyme working solution and 10 μl test substance solution were mixed in an Eppendorf vessel and preincubated at 37° C. for 15 minutes (=min.). Then 10 μl substrate stock solution was added and the test batch was incubated for 60 minutes at 37° C. The enzymatic reaction was then ended by 5-minutes' heating to 95° C. After centrifugation (Heraeus Biofuge B, 3 min.), the liquid supernatant was investigated by HPLC in accordance with the following specifications.
The substrate was separated from cleavage products by means of reversed-phase HPLC (CC 125/4 Nucleosil 300/5 C18 RP column with CC 8/4 Nucleosil 100/5 C18 precolumn, from Macherey-Nagel, Düren, Germany). For this, 60 μl of the test mixture was injected into the HPLC sample injection point and the column was then eluted at a flow rate of 1 ml/min with the following gradient:
Mobile Phase B: 100% acetonitrile+0.5M H3PO4
All the peptides were detected by absorption at 214 nm and by fluorescence with an excitation wavelength of 328 nm and an emission wavelength of 393 nm.
Upon enzymatic cleavage of the peptide, the fluorophore (=Mca) and the quencher end up in different peptide fragments, which reduces the effectiveness of the quench. […] The increasing fluorescence signal (corresponds to the area, A) of the HPLC peak of the peptide with the non-quenched Mca fluorophore is used for the further calculations. This signal was compared for samples with (=Ainhib) and without (=Acontrol) test substance of Formula I, and the value “% inhibition” was calculated on the basis of the respective peak areas according to the following formula: % inhibition=100*(1−Ainhib/Acontrol)
All the samples were measured in duplicates and average values were calculated therefrom. A standard inhibitor (10 nM thiorphan) and a solvent control (0.1% DMSO) were likewise measured as quality controls on each run. In this test model the test substances of Formula I listed in the following Table 1 had the IC50 values given below: […]

[4] = tested on: TUNEL positive cells in heart, liver and kidney; experiment: Adriamycin toxicity: determination of anti-apoptotic activity (TUNEL staining); assay type: in vivo, Wistar rats; conditions: adriamycin alone, 3 x 5 mg/kg i.p. (cumulative 15 mg/kg), vehicle minipump; day 5; ± SEM
Experimental: 2. Adriamycin Toxicity: Determination of Anti-Apoptotic Activity
Wistar rats, weighing 200-250 g, were anesthetized with chloral hydrate, 400 mg/kg, and Alzet osmotic minipumps (2 ML1), were implanted subcutaneously (=s.c.). The pumps had been filled with either vehicle or solution containing compounds of the invention at the appropriate concentration and primed prior to implantation. Animals subsequently received adriamycin at three equal daily doses of 5 mg/kg i.p. on days 1, 2 and 3. Rats were euthanized 5 days after the first injection of adriamycin and transcardially perfused with a solution containing 4% paraformaldehyde in phosphate buffer. The heart, liver and kidneys were subsequently removed and embedded in parafin.
TUNEL staining: For terminal deoxynucleotide transferase-mediated dUTP nick end-label (TUNEL) based histological analysis, organs were post-fixed for 5 days at 4° C. and paraffin-embedded. TUNEL staining was performed on 10 μm thick paraffin sections using the ApopTag Peroxidase kit (S 7100, Oncor Appligene, Heidelberg, Germany) according to the manufacturer's instructions. Briefly, after pretreatment with proteinase K and quenching of endogenous peroxidase, sections were incubated in equilibration buffer followed by working strength TdT enzyme (incorporating digoxigenin labeled dUTP nucleotides to free 3′-OH DNA termini), (1 hr, 37° C.). Sections were incubated in stop/wash buffer (30 min, 37° C.), then with anti-digoxigenin-peroxidase conjugate (30 min) followed by DAB substrate (Sigma, Deisenhofen, Germany) and lightly counterstained with methylgreen.
Wistar rats were administered adriamycin at the cumulative dose of 15 mg/kg i.p. The test substance of Example 4 was administered s.c. at the doses of 20, 50 or 100 mg/kg and day by means of Alzet osmotic minipumps over 5 days. Animals were euthanized and transcardially perfused 5 days after the first injection of adriamycin and the heart, kidney and liver were processed for TUNEL staining. Densities of TUNEL positive cells were determined as described in the methods. Results for each organ (heart, liver, kidney) were measured as mean densities of TUNEL positive cells ±SEM for the control groups and the different test groups (20, 50 or 100 mg/kg and day of test compound of Example 4) and listed in table 8 below.
Comparisons between groups were performed by means of Student's t test (**P<0.01; ***P<0.001 compared to vehicle treated rats).

T2 sequence (P08473 52-750 limits assumed): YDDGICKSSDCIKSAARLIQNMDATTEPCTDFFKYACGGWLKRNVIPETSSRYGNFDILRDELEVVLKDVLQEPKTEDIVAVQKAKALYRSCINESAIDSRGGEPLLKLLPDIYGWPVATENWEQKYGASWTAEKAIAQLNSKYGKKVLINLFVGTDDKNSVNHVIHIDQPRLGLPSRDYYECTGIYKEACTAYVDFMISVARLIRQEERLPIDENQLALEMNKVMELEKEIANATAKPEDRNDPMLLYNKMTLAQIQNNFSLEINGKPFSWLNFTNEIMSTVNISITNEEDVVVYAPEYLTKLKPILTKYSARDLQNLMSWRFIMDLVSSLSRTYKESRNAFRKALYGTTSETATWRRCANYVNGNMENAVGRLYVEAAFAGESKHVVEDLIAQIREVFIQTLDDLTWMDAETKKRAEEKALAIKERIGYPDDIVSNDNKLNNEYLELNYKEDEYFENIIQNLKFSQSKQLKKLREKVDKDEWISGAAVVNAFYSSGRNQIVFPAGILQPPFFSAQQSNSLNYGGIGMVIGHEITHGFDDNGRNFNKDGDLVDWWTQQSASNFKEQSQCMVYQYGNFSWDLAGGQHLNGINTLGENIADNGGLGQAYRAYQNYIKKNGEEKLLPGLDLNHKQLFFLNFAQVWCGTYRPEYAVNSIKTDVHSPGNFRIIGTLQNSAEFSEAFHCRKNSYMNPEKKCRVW

Compound | IC50 [1] | change in vivo at 10 µmol/kg [2] | IC50 [3] | TUNEL positive cells, Heart [4] | TUNEL positive cells, Kidney [4] | TUNEL positive cells, Liver [4]
COc1ccc(C(=O)CNC(=O)CC(CC2(C(=O)N[C@H]3CCc4ccccc4N(CC(=O)O)C3=O)CCCC2)C(=O)O)cc1 (mixture of isomers) [Example 20] | 36.3 nM | -67% | 12.9 nM | – | – | –
COc1cccc2c1C(=O)c1c(O)c3c(c(O)c1C2=O)C[C@@](O)(C(=O)CO)C[C@@H]3O[C@H]1C[C@H](N)[C@H](O)[C@H](C)O1 [Adriamycin, adriamycin, reference compound] | – | – | – | 5.417 ± 0.146 cells/mm3 × 102 | 9.438 ± 0.198 cells/mm3 × 102 | 10.420 ± 0.275 cells/mm3 × 102
CN(C)CCN(C)C(=O)CC(CC1(C(=O)NC2CCc3ccccc3N(CC(=O)O)C2=O)CCCC1)C(=O)O (stereo not drawn) [Example 59, 2-{[1-({[1-(carboxymethyl)-2-oxo-2,3,4,5-tetrahydro-1H-1-benzazepin-3-yl]amino}carbonyl)cyclopentyl]methyl}-4-[[2-(dimethylamino)ethyl](methyl)amino]-4-oxobutanoic acid] | 4 nM | -98% | 12 nM | – | – | –
O=C(O)CN1C(=O)[C@@H](NC(=O)C2(CC(CC(=O)NC3CCCCNC3=O)C(=O)O)CCCC2)CCc2ccccc21 (mixture of isomers) [Example 17] | 24 nM | -46% | < 1 nM | – | – | –
O=C(O)CN1C(=O)[C@@H](NC(=O)C2(CC(CC(=O)NCC3CC3)C(=O)O)CCCC2)CCc2ccccc21 (mixture of isomers) [Example 23] | 17.3 nM | -40% | 10.6 nM | – | – | –
COCCNC(=O)CC(CC1(C(=O)N[C@H]2CCc3ccccc3N(CC(=O)O)C2=O)CCCC1)C(=O)O (mixture of isomers) [Example 16] | 15 nM | -45% | 20 nM | – | – | –
CCN(CCCCN)C(=O)CC(CC1(C(=O)NC2CCc3ccccc3N(CC(=O)O)C2=O)CCCC1)C(=O)O (racemic) [Example 76, 4-[(4-aminobutyl)(ethyl)amino]-2-{[1-({[1-(carboxymethyl)-2-oxo-2,3,4,5-tetrahydro-1H-1-benzazepin-3-yl]amino}carbonyl)cyclopentyl]methyl}-4-oxobutanoic acid] | 4 nM | -93% | 10 nM | – | – | –
COc1ccc(CNC(=O)CC(CC2(C(=O)N[C@H]3CCc4ccccc4N(CC(=O)O)C3=O)CCCC2)C(=O)O)cc1 (mixture of isomers) [Example 24] | 27 nM | -54% | 11.1 nM | – | – | –
